Reference: US20120021077A1, “SYNERGISTIC HERBAL COMPOSITION FOR TREATMENT OF RHEUMATIC AND MUSCULO-SKELETAL DISORDERS (RMSDS)” (priority 2007, published 2012)
Where two headings read alike, the source gives them in different places.

Tests used:
[1] = system: human OA cartilage explants; test: Glycosaminoglycan (GAG) release from human OA cartilage explants; assay type: cell-based; conditions: for Percent control GAG release: control = 100%
Protocol: Aqueous extracts of each capsule were freshly prepared as required. Contents of each capsule were solubilized in distilled water (10 mG/mL) by limited autoclaving. Each extract was filter sterilized prior to addition to cartilage explants at the required final concentration. This method of herbal extract preparation gave reproducible sterility and biological activity (Sumantran et al, 2007).
Patients (age 55-75 years) suffered from chronic osteoarthritis (OA) for 5-15 years prior to knee replacement surgery. Cartilage integrity was recorded by macroscopic and microscopic examination, using the Outerbridge scale. Only non-calcified, grade 1-2 articular cartilage from the lateral femoral condyles was used (Outerbridge 1961).
OA cartilage explants were cultured as described earlier (Sumantran et al, 2007). Briefly, explants were treated for 24 hours with/without sterile aqueous extracts of each capsule, and re-fed with growth media without herbal extract every two days for eight days. Conditioned media (CM) samples from each explant were collected prior to each re-feed. All CM samples per OA patient were thawed and assayed for GAG and NO levels simultaneously. Aggrecan assays were done after analysis of the GAG release data.
Total GAG levels in CM samples were measured by the dimethylmethylene blue assay using Chondroitin sulphate as a standard (Hoemann et al, 2002). NO levels in CM samples were estimated using the Griess reagent.
GAG content is expressed as microgram equivalents of Chondroitin sulphate. NO is expressed in micromoles/mG of explant/mL of CM. Units of Aggrecan are micrograms/mG of explant/mL of CM. Each marker is measured at each time point for each CM sample derived from each patient.
Levels of GAG, NO, or aggrecan levels in CM samples from explants at each time, point, per patient, treated with/without drug; were tested for statistical significance at the 95% confidence level using the Students 2 tailed t-test for paired samples. We calculated the effect of drug extracts in each CM sample, at each time point, per patient sample; using the ratio shown below:
Long-term versus Short-term activity: Long-term chondroprotective or anti-inflammatory activity is the ability of a drug to cause a statistically significant decrease in levels of GAG, aggrecan, or NO release by OA cartilage explants, relative to controls. This effect must be observed for at least 3 of the 4 time points during in vitro culture. Short-term activity is similar, but is detected at only 1 or 2 of the 4 time points tested.
In explant model of OA cartilage damage, GAG released by cartilage explants for 5 time points after a 24 hour drug treatment was measured. The effect on GAG release from cartilage explants of six OA patients treated with/without aqueous extracts of formulations C and C+G (100 microg/mLeach) was studied. […] Glucosamine and celecoxib each caused a statistically significant, 25% decrease in GAG release at time point 4, compared to controls.

[2] = system: symptomatic OA knees; test: Phase II 24-week comparator controlled trial of equivalence; assay type: in vivo, patients; parameters: W_DIFF, mean change between baseline and completion (Mean ± SD) / W_TOTAL, mean change between baseline and completion (Mean ± SD) / W_PAIN, mean change between baseline and completion (Mean ± SD) / W_STIFF, mean change between baseline and completion (Mean ± SD): scale not given here; conditions: 24 weeks
Text: • Phase II, Randomized, double blind, comparator (Celecoxib & Glucosamine) controlled, multicentric trial of equivalence. • Study Duration-24 weeks • Sample size (statistically powered 80% with α<0.05)—440 patients with symptomatic OA knees • 4 arm-2 Ayurvedic Interventions (C, C+) Celecoxib & Glucosamine, parallel efficacy study • 110 patients in each arm • No rescue medication permitted

[3] = system: Acetic acid induced writhing in mice; test: Acetic acid induced writhing (peripheral analgesic model); assay type: in vivo, albino mice
Protocol: (§1) Analgesic and anti-inflammatory activity studies for crude drug powders or extracts and formulations there off were carried out in known animal models. Central (formalin-induced model) and peripheral (acetic acid induced model) analgesic activities were studied in albino mice, while wistar rats were used for acute (carrageenan induced paw edema model) and sub-acute (turpentine oil-induced granuloma pouch model) anti-inflammatory activity. Suitable positive and negative controls were used for the studies. The data obtained is statistically significant (P value<0.05) and reproducible.
The total number of writhings following intra-peritoneal administration of 0.6% acetic acid, 10 ml/Kg body weight was recorded for 20 minutes, starting 10 minutes after injection. The animals were pre-treated with test samples (100, 200 and 400 mg/Kg p.o.) 30 minutes prior to above treatment, simultaneously using Aspirin (30 mg/kg p.o.) as a positive control.

[4] = system: Carrageenan induced rat paw edema; test: Carrageenan induced rat paw edema (acute anti-inflammatory); assay type: in vivo, wistar rats; conditions: anti-inflammatory studies, model not specified
Protocol: as §1
Various doses of test sample (100, 200 and 400 mg/Kg p.o.) and standard Indomethacin (10 mg/kg p.o.) were administered to different groups of rats. Acute inflammation was induced half an hour after the above treatment by injection of 0.1 ml of freshly prepared 1% (in water) suspension of Carrageenan sodium in sub-planter region of rat right hind paw. Paw volume was measured by plethysmographic method initially and then at 1, 2, 3, 4, 24, 48 and 72 hrs after carrageenan injection.

[5] = system: human OA cartilage explants; test: Aggrecan release from human OA cartilage explants; assay type: cell-based
Text: The kit uses a mixture of monoclonal antibodies to different epitopes of aggrecan, thereby ensuring sensitive and rapid estimation of aggrecan.

[6] = system: OA cartilage explants; test: Nitric oxide (NO) release by OA cartilage explants; assay type: cell-based, human
[7] = system: symptomatic knee osteoarthritis; test: 16-week randomized double blind placebo and comparator controlled trial (NMITLI OA stage I/2); assay type: in vivo, patients
Protocol: NMITLI OA stage I/2: The said formulation was evaluated in a randomized double blind placebo controlled, multicentric 16 week clinical trial in 245 patients with symptomatic knee osteoarthritis. This was This was a 7 arm exploratory study, aimed to evaluate the efficacy and safety of 5 multiplant formulations using Shunthi-Guduchi as a common platform formulation in all. Glucosamine was the positive comparator.
Glucosamine was the positive comparator in this study.
The clinical trials are conducted on the following basis: • Randomized, Double Blind, parallel efficacy, Placebo & Comparator controlled study • 245 patients in a 7 arm (5 ayurvedic arms coded as A-E, placebo-1, Glucosamine-1) study of 16 weeks duration. • 35 patients in each arm • Monitored pain rescue medication (oral paracetamol) permitted on SOS basis • Intent to treat analysis with last observation carried forward • All arms well-matched at baseline for demographics and efficacy.

[8] = system: active Rheumatoid arthritis (RA); test: NMITLI RA stage I/1, 24-week study; assay type: in vivo, patients; conditions: week 24
Text: NMITLI RA STAGE I/1: A randomized double blind comparator controlled parallel efficacy multicentric 24-week study in patients with active Rheumatoid arthritis (RA). In this study, formulation B and a proprietary ayurvedic formulation were compared to Hydroxychloroquine (HCQS), which is a popular DMARD (Disease Modifying Anti Rheumatoid Drug) in modern medicine rheumatology. As a complex painful inflammatory polyarticular disease, several efficacy variables, both clinical and laboratory were used to evaluate efficacy—Joint Counts for pain/tenderness and swelling, pain VAS, Patients Global assessments by the patient and physician, Health Assessment Questionnaire (a validated instrument for functional ability for Indian use), ESR, CRP and cytokines markers.
At baseline, all the groups were matched well in several demographic and efficacy measures. […] The overall safety of Ayurvedic formulations was better than HCQS.

[9] = system: arachidonic acid (AA) induced platelet activation in human whole blood; conditions: read-out: anti-platelet activity IC(50); cited from earlier work
[10] = system: mouse bone marrow; conditions: test drugs 2000 mg/kg oral; cyclophosphamide 75 mg/kg i.p.
Protocol: Assessment of genotoxicity using mouse bone marrow micronucleus test and Salmonella reverse mutation test was carried out according to OECD guidelines No. 474 and 471 respectively.
Genotoxicity study was carried out using mammalian bone marrow micronucleus test with the limit test at a single dose level of 2000 mg/kg body weight. The test drug was suspended in 1% CMC (carboxy methyl cellulose) and administered orally to the experimental animals. Control animals received 1% CMC alone. […] Treatment was given for two consecutive days at 0 h and 24 h. […] All the mice were sacrificed at 6th hr. after the last treatment (30th hr. after first dose) and femur bones were excised and bone marrow contents were flushed with fetal calf serum. Bone marrow cells were centrifuged spread as a smear on glass slide and stained using Giemsa stain and May-Grunwald stain. […] Minimum 2000 PCEs were scored from each animal. All the slides were coded prior to scoring and decoded after completion of scoring.

[11] = time point 3, controls set at 100%
[12] = time point 4, controls set at 100%

## Cc1ccc(-c2cc(C(F)(F)F)nn2-c2ccc(S(N)(=O)=O)cc2)cc1 [Celecoxib]
[1]; time point 1, 100 microg/mL
  Percent control GAG release: 90.24 ± 25.71%
[1]; time point 2, 100 microg/mL
  Percent control GAG release: 84.87 ± 28.54%
[1]; time point 3, 100 microg/mL
  Percent control GAG release: 87.83 ± 28.99%
[1]; time point 4
  decrease in GAG release compared to controls: 25%
[1]; time point 4, 100 microg/mL
  Percent control GAG release: 74.81 ± 31.83%
[1]; time point 5, 100 microg/mL
  Percent control GAG release: 89.42 ± 31.98%
[2]
  PainVAS, mean change between baseline and completion (Mean ± SD): −1.82 ± 1.95
  W_DIFF, mean change between baseline and completion (Mean ± SD): −6.93 ± 9.88
  W_PAIN, mean change between baseline and completion (Mean ± SD): −1.89 ± 3.01
  W_STIFF, mean change between baseline and completion (Mean ± SD): −0.34 ± 1.91
  W_TOTAL, mean change between baseline and completion (Mean ± SD): −9.17 ± 13.05
[3]
  dose with significant peripheral analgesic activity: 400 mg/kg
[4]
  minimum dose with significant anti-inflammatory activity: 200 mg/kg

## N[C@H]1C(O)O[C@H](CO)[C@@H](O)[C@@H]1O (stereo partly drawn) [Glucosamine]
[1]; long term = at least 3 of 4 time points, short term = 1 or 2
  Glycosaminoglyan (GAG) release, decrease: Short term
[1]; time point 1, 100 microg/mL
  Percent control GAG release: 118.96 ± 34.74%
[1]; time point 2, 100 microg/mL
  Percent control GAG release: 91.70 ± 16.55%
[1]; time point 3
  mean decrease of GAGs release relative to control explants: 26%
[1]; time point 3, 100 microg/mL
  Percent control GAG release: 86.52 ± 19.36%
[1]; time point 3, both markers
  mean decrease in levels of GAG and aggrecan release relative to controls: 25-35%
[1]; [11]
  levels of GAG released compared to controls (FIG. 1): 73.72±9.69%
[1]; time point 4
  decrease in GAG release compared to controls: 25%
  mean decrease of GAGs release relative to control explants: 20%
[1]; time point 4, 100 microg/mL
  Percent control GAG release: 76.01 ± 19.96%
[1]; [12]
  levels of GAG released compared to controls (FIG. 2): 81.38±14.35%
[1]; time point 5, 100 microg/mL
  Percent control GAG release: 87.15 ± 20.83%
[2]
  PainVAS, mean change between baseline and completion (Mean ± SD): −2.45 ± 2.23
  W_DIFF, mean change between baseline and completion (Mean ± SD): −8.12 ± 10.89
  W_PAIN, mean change between baseline and completion (Mean ± SD): −2.72 ± 3.26
  W_STIFF, mean change between baseline and completion (Mean ± SD): −0.49 ± 1.61
  W_TOTAL, mean change between baseline and completion (Mean ± SD): −11.33 ± 13.75
[5]
  Aggrecan (AGG) release, decrease: Significant
[5]; time point 3
  mean decrease of Aggrecan release relative to control explants: 34%
[5]; [11]
  levels of aggrecan released compared to controls (FIG. 1): 66.13±21.81%
[5]; time point 4, 5 patients
  Aggrecan release by cartilage explants: not significantly decreased
[5]; [12]
  levels of aggrecan released compared to controls (FIG. 2): 86.07±21.71%
[6]
  Nitric oxide (NO) release, decrease: No significant
[6]; listed as gulosamine
  Nitric oxide (NO) release, decrease: did not significantly decrease
[7]; all visits
  Daily consumption Paracetamol, Mean, AVR_TOTAL: 1.7950
[7]; baseline
  PATG (1-5 grades), baseline mean: 3.52 grades
  PainVAS (0-100 mm), baseline mean: 64.8 mm
  WOMAC Pain (0-20 score), baseline mean: 8.0 score
[7]; over 16 weeks
  PATG, mean of percent change from baseline: 15.4%
  PainVAS, mean of percent change from baseline: 21%
  WOMAC Pain, mean of percent change from baseline: 14.2%
[7]; visit 3
  Daily consumption Paracetamol, Mean, AVR_PAR3: 2.0110
[7]; visit 4
  Daily consumption Paracetamol, Mean, AVR_PAR4: 1.9038
[7]; visit 5
  Daily consumption Paracetamol, Mean, AVR_PAR5: 1.9863
[7]; visit 6
  Daily consumption Paracetamol, Mean, AVR_PAR6: 1.8846
[7]; visit 7
  Daily consumption Paracetamol, Mean, AVR_PAR7: 1.3516
[3]
  dose with significant peripheral analgesic activity: 400 mg/kg
[4]
  minimum dose with significant anti-inflammatory activity: devoid of any anti-inflammatory activity

## CCN(CCO)CCCC(C)Nc1ccnc2cc(Cl)ccc12 (stereo not drawn) [HCQS, Hydroxychloroquine]
[8]
  efficacy in RA, individual group analysis: several significant improvements

## CC(=O)Oc1ccccc1C(=O)O [aspirin]
[9]
  IC50: 20 µM

## O=P1(N(CCCl)CCCl)NCCCO1 (stereo not drawn) [cyclophosphamide]
[10]
  micronucleus induction / mutagenic effect: significant increase in percent micronuclei: PCE ratio
